This is an account of results in ChEMBL document CHEMBL3045406, “Enantioselective Relieving Activity of α-Methylbenzylphenylureas toward Bensulfuron-methyl Injury to Rice (Oryza sativa)” (Biosci Biotechnol Biochem, 1999).

For data set [1], the system named is Oryza sativa. In words: Effect on Oryza sativa (rice) assessed as growth rate at 1 uM relative to control. Type of data set: organism-based. The settings on record: in vivo.
Data set [2] relates to Oryza sativa. The experiment in a line: Relieving activity against bensulfuron-methyl induced injury to Oryza sativa (rice) assessed as growth rate at 1 uM (Rbv = 46 to 53%). In kind it is functional.
Data set [3] is described as follows: Hydrophobicity, log K of the compound. The settings on record: octanol/water. In kind it is physicochemical.
In data set [4] the test system is Oryza sativa. In words: Effect on Oryza sativa (rice) assessed as growth rate at 0.1 uM relative to control. The settings on record: in vivo. Type of data set: organism-based.
The test system of data set [5] is Oryza sativa. The experiment in a line: Safener indices, ratio of compound effect of Oryza sativa (rice) growth rate to relieving activity against bensulfuron-methyl induced injury to Oryza sativa growth rate at 1 uM.
For data set [6], the system named is Oryza sativa. The experiment in a line: Safener indices, ratio of compound effect of Oryza sativa (rice) growth rate to relieving activity against bensulfuron-methyl induced injury to Oryza sativa growth rate at 10 uM.
Data set [7] deals with Oryza sativa. The experiment in a line: Effect on Oryza sativa (rice) assessed as growth rate at 10 uM relative to control. Type of data set: organism-based. To be noted: in vivo.
The subject of data set [8] is Oryza sativa. In words: Safener indices, ratio of compound effect of Oryza sativa (rice) growth rate to relieving activity against bensulfuron-methyl induced injury to Oryza sativa growth rate at 0.1 uM.
Data set [9] relates to Oryza sativa. In words: Relieving activity against bensulfuron-methyl induced injury to Oryza sativa (rice) assessed as growth rate at 0.1 uM (Rbv = 46 to 53%). In kind it is functional.
Data set [10] relates to Oryza sativa. The experiment in a line: Relieving activity against bensulfuron-methyl induced injury to Oryza sativa (rice) assessed as growth rate at 10 uM (Rbv = 46 to 53%). In kind it is functional.

`C[C@@H](NC(=O)Nc1ccc(I)cc1)c1ccccc1`: the Activity was determined as 91% in the data set on Oryza sativa [1]; 78% with Oryza sativa [2]; 100% in the data set on Oryza sativa [4]; 85% in the data set with Oryza sativa [7]; 69% with Oryza sativa [9]; 79% in the data set on Oryza sativa [10]. Besides, the “log K” value in [3] is listed as 0.556. Moreover, the Ratio is listed as 58 in the data set with Oryza sativa [5], 63 in the data set with Oryza sativa [6] and 35 in the data set with Oryza sativa [8].

Take `Cc1ccc(NC(=O)N[C@H](C)c2ccccc2)cc1`: the Activity was determined as 98% with Oryza sativa [1]; 70% with Oryza sativa [2]; 100% in the data set with Oryza sativa [4]; 64% in the data set on Oryza sativa [7]; 54% in the data set on Oryza sativa [9]; 63% in the data set with Oryza sativa [10]. The “log K” value in data set [3] is on record as 0.367. Besides, the Ratio is 41 with Oryza sativa [5], 46 in the data set on Oryza sativa [6] and 9 in the data set on Oryza sativa [8].

Consider `C[C@@H](NC(=O)Nc1cccc(Cl)c1Cl)c1ccccc1`, for which the Activity was found to be 100% with Oryza sativa [1]; 80% in the data set on Oryza sativa [2]; 100% in the data set on Oryza sativa [4]; 99% in the data set on Oryza sativa [7]; 59% with Oryza sativa [9]; 89% in the data set on Oryza sativa [10]. The “log K” value in data set [3] is 0.646. In addition, the Ratio in the data set with Oryza sativa [5] is 58; in the data set on Oryza sativa [6], 78; with Oryza sativa [8], 14.

`C[C@H](NC(=O)Nc1ccccc1)c1ccccc1`: the Activity is listed as 98% in the data set with Oryza sativa [1]; 80% with Oryza sativa [2]; 101% in the data set with Oryza sativa [4]; 90% in the data set on Oryza sativa [7]; 67% with Oryza sativa [9]; 80% with Oryza sativa [10]. In data set [3], the “log K” value was 0.28. The results for the Ratio in the data set on Oryza sativa [5], in the data set on Oryza sativa [6] and with Oryza sativa [8] were 58, 63 and 30, respectively.

Take `C[C@H](NC(=O)Nc1c(F)cccc1F)c1ccccc1`: the Activity with Oryza sativa [1] is recorded as 99%; with Oryza sativa [2] it was 61%; in the data set with Oryza sativa [4] it was 100%; in the data set on Oryza sativa [7], 99%; in the data set on Oryza sativa [9], 53%; in the data set on Oryza sativa [10] it was 81%. Moreover, the “log K” value in data set [3] worked out at 0.238. Also, the Ratio with Oryza sativa [5] came out at 22; in the data set on Oryza sativa [6] it was 62; with Oryza sativa [8] it was 6.

`C[C@@H](NC(=O)Nc1cc(C(C)(C)C)ccc1C(C)(C)C)c1ccccc1`: the Activity with Oryza sativa [1] is listed as 99%; with Oryza sativa [2], 63%; in the data set with Oryza sativa [4], 100%; in the data set on Oryza sativa [7], 99%; with Oryza sativa [9] it was 57%; in the data set on Oryza sativa [10] it was 73%. In addition, in [3], the “log K” value was 1.001. The Ratio is listed as 23 in the data set on Oryza sativa [5], 43 with Oryza sativa [6] and 11 in the data set with Oryza sativa [8].

`CC(C)c1ccccc1NC(=O)N[C@@H](C)c1ccccc1`: the Activity with Oryza sativa [1] was 96%; in the data set with Oryza sativa [2], 48%; in the data set with Oryza sativa [4], 99%; with Oryza sativa [7], 93%; in the data set with Oryza sativa [9], 46%; in the data set with Oryza sativa [10] it was 52%. Further, the “log K” value in [3] was determined as 0.487. In addition, the Ratio was determined as 7 with Oryza sativa [5], 15 with Oryza sativa [6] and 1 in the data set with Oryza sativa [8].

With `C[C@@H](NC(=O)Nc1ccccc1C(F)(F)F)c1ccccc1`, the Activity in the data set with Oryza sativa [1] turned out to be 95%; in the data set on Oryza sativa [2], 54%; with Oryza sativa [4], 99%; with Oryza sativa [7], 54%; in the data set with Oryza sativa [9], 55%; with Oryza sativa [10], 58%. In addition, the “log K” value in [3] was 0.456. Also, the Ratio with Oryza sativa [5] came to 11; in the data set with Oryza sativa [6], 42; in the data set on Oryza sativa [8] it was 10.

As to `CCOC(=O)c1cccc(NC(=O)N[C@H](C)c2ccccc2)c1`, the Activity with Oryza sativa [1] is listed as 94%; with Oryza sativa [2], 74%; in the data set with Oryza sativa [4], 99%; with Oryza sativa [7] it was 88%; in the data set on Oryza sativa [9], 57%; with Oryza sativa [10], 87%. The “log K” value in data set [3] is 0.419. The Ratio in the data set on Oryza sativa [5] is 51; in the data set on Oryza sativa [6], 77; in the data set on Oryza sativa [8] it was 15.

Consider `CC(=O)c1cccc(NC(=O)N[C@@H](C)c2ccccc2)c1`, for which the Activity turned out to be 95% in the data set with Oryza sativa [1]; 83% in the data set with Oryza sativa [2]; 96% in the data set with Oryza sativa [4]; 94% in the data set on Oryza sativa [7]; 65% with Oryza sativa [9]; 89% with Oryza sativa [10]. Besides, the “log K” value in data set [3] was 0.245. Besides, the Ratio amounted to 38 with Oryza sativa [5], 80 with Oryza sativa [6] and 35 in the data set with Oryza sativa [8].

For the compound `Cc1cc(F)ccc1NC(=O)N[C@@H](C)c1ccccc1`, the Activity is 98% with Oryza sativa [1]; 71% in the data set on Oryza sativa [2]; 99% in the data set on Oryza sativa [4]; 96% in the data set on Oryza sativa [7]; 56% in the data set with Oryza sativa [9]; 81% in the data set with Oryza sativa [10]. Moreover, the “log K” value in [3] came out at 0.356. In addition, the Ratio is 40 in the data set with Oryza sativa [5], 62 with Oryza sativa [6] and 9 with Oryza sativa [8].

In the case of `C[C@H](NC(=O)Nc1ccc(Cl)cc1)c1ccccc1`, the Activity in the data set on Oryza sativa [1] amounted to 101%; with Oryza sativa [2], 83%; in the data set on Oryza sativa [4] it was 103%; in the data set with Oryza sativa [7], 101%; in the data set on Oryza sativa [9] it was 63%; with Oryza sativa [10], 88%. For the same compound, in [3], the “log K” value is 0.439. The Ratio with Oryza sativa [5] was found to be 64; in the data set on Oryza sativa [6] it was 74; in the data set on Oryza sativa [8], 21.

For `C[C@@H](NC(=O)Nc1ccc(C(F)(F)F)cc1)c1ccccc1`, the Activity in the data set on Oryza sativa [1] came to 89%; in the data set with Oryza sativa [2], 74%; with Oryza sativa [4] it was 93%; with Oryza sativa [7] it was 82%; with Oryza sativa [9] it was 59%; in the data set with Oryza sativa [10] it was 67%. Besides, the “log K” value in data set [3] was 0.537. The values for the Ratio in the data set on Oryza sativa [5], in the data set with Oryza sativa [6] and in the data set on Oryza sativa [8] were 53, 42 and 22, respectively.

For `C[C@@H](NC(=O)Nc1cc(F)ccc1F)c1ccccc1`, the Activity was found to be 100% with Oryza sativa [1]; 67% with Oryza sativa [2]; 100% in the data set on Oryza sativa [4]; 92% with Oryza sativa [7]; 54% with Oryza sativa [9]; 77% with Oryza sativa [10]. The “log K” value in [3] is listed as 0.464. The Ratio worked out at 34 in the data set with Oryza sativa [5], 57 with Oryza sativa [6] and 7 with Oryza sativa [8].

As for `Cc1ccc(NC(=O)N[C@H](C)c2ccccc2)c(F)c1`, the Activity with Oryza sativa [1] is listed as 99%; in the data set on Oryza sativa [2], 79%; with Oryza sativa [4], 98%; in the data set with Oryza sativa [7] it was 99%; in the data set on Oryza sativa [9], 57%; in the data set with Oryza sativa [10] it was 89%. In addition, the “log K” value in data set [3] was 0.459. Further, the results for the Ratio with Oryza sativa [5], with Oryza sativa [6] and in the data set on Oryza sativa [8] were 55, 78 and 11, respectively.
